We go through 3 molecules from patent publication US20130101664A1, “MUC1 LIGAND TRAPS FOR USE IN TREATING CANCERS” (priority 2011, published 2013).

The subject of experiment [1] is ZR-75-1 breast carcinoma cells. In words: Cell proliferation by trypan blue exclusion, GO-101 with oxidative stress (H2O2). It counts as cell-based, human. The settings on record: 500 nM GO-101 and/or 1 mM H2O2, 3 days, compared to mock conditions. Here is the method: FIG. 8. ZR-75-1 human breast carcinoma cells were treated with 500 nM GO-101 and/or 1 mM H2O2 for 3 days and the cell proliferation was measured by trypan blue exclusion method. The percent proliferation is shown to that compared with control.
To assess the effects of GO-101 on sensitivity of human carcinoma cells to oxidative stress, the inventors treated ZR-75-1 breast carcinoma cells with 500 nM GO-101 in the presence and absence of […]. As a control, cells were also separately treated with hFc (data not shown). Following treatment for 3 days, viable cells were then counted using trypan blue exclusion. […] Importantly, the ZR-75-1 cells exposed to 500 nM GO-101, but not hFc, was associated with ˜42% growth inhibition. However, there was a ˜90% growth inhibition when cells were treated with both H2O2 and GO-101 (FIG. 8).

Experiment [2] concerns ZR-75-1 human breast carcinoma xenograft. It counts as in vivo. The settings on record: doxorubicin 6 mg/kg i.v. Q4D×3.
Procedure: ZR-75-1 human breast carcinoma bearing nu/nu mice were dosed with either doxorubicin alone (squares) or in combination with 1 mg/kg GO-101 i.p daily×21 days (circles). Tumors were measured twice a week.
ZR-75-1 Hormone-dependent Breast Carcinoma Xenograft Model: Preliminary 1st TRAP Study in Combination with Doxorubicin (mean tumor volume+SE). ZR-75-1 human breast carcinoma bearing nu/nu mice were dosed with either doxorubicin 6 mg/kg i.v. Q4D×3 (squares) or 1 mg/kg GO-101 i.p daily×21 days+doxorubicin 6 mg/kg i.v. Q4D×3 (circles). Mice were weighed 2-3 times a week and tumor measurements were also performed 2-3 times a week. Points, mean tumor volumes±SE.
GO-101. To avoid freeze/thaw cycles, GO-101 protein (HG-batch GENU001) was prepared as multiple aliquots of frozen solution in PBS into individual treatment doses. The frozen tubes were stored at −80° C. until initiation of dosing. On each day of treatment, the appropriate tubes were allowed to thaw at room temperature. The resulting solution in each tube was clear and colorless with a pH of ˜6.5.
Upon receipt, the clear, red solution was stored at 4° C. protected from light. Dosing solutions were prepared just prior to each treatment by dilution with saline.
About 9-10 weeks old female mice (on the day of treatment) (CRL: NUFoxn1nu) were obtained from Charles River Labs. The mice were fed irradiated Rodent Diet 5053 and water ad libitum. […]
For experiment [3] the following is noted: severe sepsis; decrease from about 31%; cited from earlier work.

Turning to `OO` [H2O2], in experiment [1], the “inhibition in cell proliferation / growth inhibition” value was ~66%.

With `COc1cccc2c1C(=O)c1c(O)c3c(c(O)c1C2=O)C[C@@](O)(C(=O)CO)C[C@@H]3O[C@H]1C[C@H](N)[C@H](O)[C@H](C)O1` [doxorubicin], in experiment [2], the “tumor regressions / tumor free survivors” value is reported as “neither tumor regressions nor tumor free survivors”. In addition, the “anti-tumor activity based upon tumor growth delay” value in experiment [2] (p=0.0356) is recorded as “significant”.

Regarding drotrecogin alfa, in experiment [3], the mortality result is on record as “about 25%”.
